From patent US12115208B2, “Small-molecule adjuvants for antibiotics to address antibiotic resistance” (HIGH POINT UNIVERSITY, priority 2017, dated 2024)
Values after ≈ are worked out from the molar mass of the structure shown. Where two headings read alike, the source gives them in different places.

Key:
[1] = tested on: S. aureus 43300 (MRSA); experiment: Antibiotic repotentiation (antibiotic MIC with/without compound); assay type: cell-based, Staphylococcus aureus; details: +50 μM compound, S. aureus 43300 (MRSA); for Fold Reduction: oxacillin MIC
Protocol: (§1) The overnight culture was diluted into fresh CAMHB to a concentration of 5×10^5 CFU/ml. […] On the same plate, a standard microdilution MIC with the tested antibiotics and no added compound was also performed to compare the antibiotic MIC in the presence and absence of compound. […] Fold reductions were calculated by dividing the MIC of the antibiotic without compound by the MIC of the antibiotic in the presence of compound.
(§2) The compounds were then analyzed for antibiotic repotentiation activity. […] The tested strains included USA300, which is a common and particularly virulent strain of community-acquired MRSA.

[2] = tested on: MRSA 43300 biofilm; experiment: Biofilm inhibition, crystal violet assay; assay type: cell-based, Staphylococcus aureus; details: 30 h
Protocol: A standard static crystal violet assay was used to quantify biofilm inhibition.^45 Cultures of S. aureus or S. epidermidis were grown overnight in TSBG (tryptic soy broth with 5% glucose) at 37° C. with shaking. These cultures were used to inoculate fresh TSBG to a calculated optical density of 0.01 at 600 nm (OD600). […] Untreated aliquots were used as a positive control and water served as a negative control. 100 μl of these suspensions were added to the wells of a 96-well polyvinylchloride microtiter plate. […] After incubation, media was discarded and the plates were washed with water to remove non-adherent cells. Adherent biofilms were stained with 110 μl of crystal violet (0.1% in water) and incubated at room temperature for thirty minutes. The crystal violet staining solution was discarded and plates were washed with water to remove excess stain. The resulting stained biofilms were solubilized with 200 μL of 95% ethanol for 10 minutes. 125 μl of the ethanol solutions were transferred to a clear polystyrene microtiter plate for evaluation. Absorbance at 540 nm was recorded using a BioTek Synergy H1 microplate reader. The absorbance of the negative control lanes was subtracted from the experimental values to account for background staining. Percent inhibition was calculated by comparison of the absorbance values of control versus treated wells under identical conditions.
Antibiotic resistance and biofilm formation share similar regulatory mechanisms. […] Biofilm inhibition was first assessed in S. aureus 43300, a methicillin-resistant strain (see Table 18). As described in Materials and Methods, a standard crystal violet assay was used to assess biofilm inhibition by the tested compounds. The IC50 is described as the compound concentration required to inhibit 50% of biofilm formation. The standard deviation is calculated from at least 3 independent experiments.

[3] = tested on: S. aureus USA300 (MRSA); experiment: Minimum inhibitory concentration, broth microdilution; assay type: cell-based, Staphylococcus aureus; details: compound alone, S. aureus USA300 (MRSA), CAMHB, 18 h, read-out: MIC
Protocol: as §2

[4] = tested on: S. aureus ATCC 43300 (MRSA); experiment: as above; assay type: cell-based, Staphylococcus aureus; details: compound alone, S. aureus ATCC 43300 (MRSA), CAMHB, 18 h, read-out: MIC
Protocol: as §2

[5] = tested on: S. aureus USA100 (MRSA); experiment: Antibiotic repotentiation (antibiotic MIC with/without compound); assay type: cell-based, Staphylococcus aureus; details: +50 μM compound, S. aureus USA100 (MRSA); for Fold Reduction: oxacillin MIC
Protocol: as §1

[6] = tested on: S. aureus USA100 (MRSA); experiment: microbe, parasite or virus in culture; assay type: cell-based, Staphylococcus aureus; details: compound alone, CAMHB, 18 h
[7] = tested on: S. aureus USA300 (MRSA); experiment: Antibiotic repotentiation (antibiotic MIC with/without compound); assay type: cell-based, Staphylococcus aureus; details: +50 μM compound, S. aureus USA300 (MRSA); for Fold Reduction: oxacillin MIC
Protocol: as §1, §2

[8] = tested on: S. epidermidis 49461; experiment: Antibiotic repotentiation (oxacillin MIC with/without compound); assay type: cell-based, Staphylococcus epidermidis; details: +75 μM compound; S. epidermidis 49461
Protocol: as §1
Antibiotic potentiation in S. epidermidis was also investigated.

[9] = tested on: S. aureus ATCC 29213; experiment: Minimum inhibitory concentration, broth microdilution; assay type: cell-based; details: Staphylococcus aureus, ATCC29213; compound alone; S. aureus ATCC 29213; CAMHB, 18 h; read-out: MIC
Protocol: as §2

Row | SMILES | Fold Reduction [1] | IC50 ([2]; Staphylococcus aureus, MRSA) [µM] | MIC [3] [µM] | MIC [4] [µM] | Fold Reduction [5] | MIC [6] [µM] | Oxacillin MIC [7] | Fold Reduction [7] | Oxacillin MIC [1] [µg/mL] | IC50 [2] [µM] | Oxacillin MIC [5] [µg/mL] | MIC ([3]; Staphylococcus aureus) [µM] | MIC ([4]; Staphylococcus aureus) [µM] | Oxacillin MIC [8] [µg/mL] | MIC [9] [µM]
1 | Clc1ccc2c(c1)Nc1ccccc1CC2 [Compound I-5, 3-chloro-10,11-dihydro-5H-dibenzo[b,f]azepine] | 16 | 18.7 | – | – | – | – | – | – | – | – | – | – | – | – | –
2 | Clc1ccc2[nH]c3ccc(Cl)cc3c2c1 [IV-6] | 32 | – | >200 | >200 | 1024/2048 | >200 | 16/8 | 4/8 | 1 | 10.2 | – | – | – | – | –
3 | Brc1ccc2[nH]c3ccccc3c2c1 [IV-3] | 2 | – | >200 | >200 | 1 | >200 | 64 µg/mL | 1 | 16 | – | 512 | – | – | – | –
4 | Brc1cccc2[nH]c3ccccc3c12 [IV-4] | 1 | – | 100 | 200 | 128 | 100 (≈ 24.6 µg/mL) | 2 µg/mL | 32 | 32 | – | 4 | – | – | – | –
5 | Brc1cccc2c1[nH]c1ccccc12 [IV-2] | 8 | – | >200 | >200 | 64 | >200 | 16/8 | 4/8 | 4 | – | 8 | – | – | – | –
6 | CN1CCN(C2=Nc3cc(Cl)ccc3Nc3ccccc32)CC1 [Clozapine, 8-chloro-11-(4-methyl-1-piperazinyl)-5H-dibenzo[b,e][1,4]diazepine, reference compound] | – | – | – | – | – | – | – | – | – | – | – | 600 | 600 | 16 | 1200
